The assay has as its system Mycobacterium tuberculosis H37Rv growth inhibition, no glycerol. The assay is described as follows: Mycobacterium tuberculosis H37Rv growth inhibition, no glycerol, confirmatory dose response (AID 449764).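 On all read-outs here: growth read after 7 days of incubation.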 To be noted: for IC90: measured here: IC90 growth inhibition.

The values that follow come from PubChem BioAssay AID449764 (Southern Research Specialized Biocontainment Screening …, 2010).

Regarding `COc1ccccc1N1CCN(CCCCOc2cccc3ccccc23)CC1`, the IC50 (usually the concentration that inhibits the measured activity by half) was 33 µM and the IC90 (as a rule, the concentration needed for an effect of 90%) turned out to be 43.5 µM.

For `CC1(O)CC(c2ccc(Cl)cc2)=NN1C(=O)c1ccc([N+](=O)[O-])cc1` (stereo not drawn), the IC50 is 7.79 µM and the concentration for an effect of 90% (IC90) is greater than 100 µM.

Regarding `CCOC(=O)CNc1ccc(C(=O)OCC)cc1[N+](=O)[O-]`, the IC50 is 18.1 µM and the IC90 was greater than 100 µM.

With `CCOc1ccc2nc(NC(=O)C34CC5CC(CC(NC(C)=O)(C5)C3)C4)sc2c1`, the 50% inhibitory concentration (IC50) was 23.2 µM and the IC90 was 38.4 µM.

On to `CCOC(=O)COc1cc(O)c2c(=O)cc(-c3ccccc3)oc2c1`, for which the IC50 is 1.38 µM and the IC90 amounted to 2.03 µM.

Consider `Cc1nc(-c2ccc(Cl)cc2)sc1C1(C)CC(c2ccc(C#N)cc2)=NO1` (stereo not drawn), for which the IC50 was 43.6 µM and the IC90 was greater than 100 µM.

For the compound `O=C(CN1CCN(c2nc(-c3ccc(F)cc3)cs2)CC1)NCc1ccc2c(c1)OCO2`, the IC50 was 38.1 µM and the IC90 is 55.6 µM.

For the compound `O=C(c1cc2ccccc2o1)N1CCN(S(=O)(=O)c2ccc(Cl)s2)CC1`, the IC50 is 15.6 µM and the IC90 was found to be 56 µM.

`O=C(CSc1nc2ccccc2nc1N1CCOCC1)N1CCN(c2ccccc2)CC1`: the IC50 is 11.8 µM and the IC90 was found to be 14 µM.

As for `O=[N+]([O-])c1ncccc1Oc1nc(-c2cccnc2)nc2ccccc12`, the IC50 was 0.82 µM and the IC90 amounted to 3.87 µM.

As to `O=C(Cc1ccc(Nc2nc3ccc(Br)cc3[nH]2)cc1)NCCc1cccs1`, the IC50 is 29.6 µM and the IC90 stood at 37 µM.

Turning to `c1cc(Nc2cccc3nccnc23)c2nccnc2c1`, the IC50 was 24.4 µM and the IC90 was found to be 28.3 µM.

For `Cc1cc(N/N=C2/CCCc3ccccc32)nc2ccccc12`, the IC50 was 41.9 µM and the IC90 was 45.6 µM.

Take `CCn1nc(NC(=O)c2ccncc2)c2cc3cc(C)ccc3nc21`: the IC50 was 4.7 µM and the IC90 was greater than 100 µM.

With `CN1CC=C(/C=C/c2ccc(-c3ccccc3)cc2)CC1`, the IC50 is 24.5 µM and the IC90 was 28 µM.

As for `COC(=O)N/N=C/c1c[n+]([O-])c2ccccc2[n+]1[O-]`, the IC50 was 18.7 µM and the IC90 was determined as 27.5 µM.

For the compound `Cc1ccn2nc(S(=O)(=O)Nc3c(F)cccc3F)nc2n1`, the IC50 is 9.62 µM and the IC90 turned out to be 11.5 µM.

`C=C1C(=O)[C@@]23[C@H](O)C[C@@H]4C(C)(C)CC[C@H](O)[C@@]4(C)[C@@H]2CC[C@@H]1[C@H]3O`: the IC50 is 8.35 µM and the IC90 came out at 11.3 µM.

Regarding `Oc1ccccc1-c1nnc(COc2ccccc2)o1`, the IC50 is 19 µM and the IC90 came out at 28.9 µM.

Consider `CSCCC(=O)N1CCCC(CNC(=O)c2ccc(-c3ccccc3)cc2)C1` (stereo not drawn), for which the IC50 was 41.5 µM and the IC90 amounted to 70.6 µM.

As to `COc1ccc(C(C[N+](=O)[O-])c2c(-c3ccccc3)cc3ccccn23)c(OC)c1` (stereo not drawn), the IC50 was 45.7 µM and the 90% effect concentration (IC90) is 51.8 µM.

For the compound `O=C(O)c1[nH]c(=O)[nH]c(=O)c1F`, the IC50 was 5.47 µM and the IC90 came to 14.1 µM.

For the compound `CN(CCCNC(=O)c1cc2c(Cl)nc3ccccc3c2s1)Cc1ccccc1`, the IC50 is 55.7 µM and the IC90 worked out at 91.1 µM.

Take `O=C(Cc1ccccc1)N/N=C/c1ccc2cccc(O)c2n1`: the IC50 is 11.3 µM and the IC90 is 12.6 µM.

As to `Cc1ccc(NC(=O)COc2ccccc2CNC(C)(C)CC(C)(C)C)cc1`, the IC50 was 24.6 µM and the IC90 is 36.2 µM.

Take `Cn1nc(C(C)(C)C)cc1NC(=O)Nc1cc(Cl)cc(Cl)c1`: the IC50 was 18.2 µM and the IC90 came to 25.6 µM.

`Nc1c(C(=O)O)cnc2c(-c3ccc(Cl)cc3)cnn12`: the IC50 is 64 µM and the IC90 is 99.8 µM.

As for `Cc1cc(CC(C)C)n(-c2nc3ccccc3c(=O)n2OCC(N)=O)n1`, the IC50 is 11.2 µM and the 90% effect concentration (IC90) stood at 20.6 µM.

On to `COC(=O)c1ccc2c(c1O)C(=O)c1ccccc1C2=O`, for which the IC50 is 83.6 µM and the IC90 was found to be 89.4 µM.
